The target of test [1] is T1, Hypoxia-inducible factor 1-alpha (Homo sapiens, UniProt Q16665). The test is described as follows: Activation of HIF1 in human T47D cells after 30 mins by luciferase reporter gene assay. Type of test: cell-based.
The target in test [2] is T1, Hypoxia-inducible factor 1-alpha. Kind of test: Activation of HIF1 in human T47D cells. Type of test: cell-based.

T1 sequence (Q16665 whole entry): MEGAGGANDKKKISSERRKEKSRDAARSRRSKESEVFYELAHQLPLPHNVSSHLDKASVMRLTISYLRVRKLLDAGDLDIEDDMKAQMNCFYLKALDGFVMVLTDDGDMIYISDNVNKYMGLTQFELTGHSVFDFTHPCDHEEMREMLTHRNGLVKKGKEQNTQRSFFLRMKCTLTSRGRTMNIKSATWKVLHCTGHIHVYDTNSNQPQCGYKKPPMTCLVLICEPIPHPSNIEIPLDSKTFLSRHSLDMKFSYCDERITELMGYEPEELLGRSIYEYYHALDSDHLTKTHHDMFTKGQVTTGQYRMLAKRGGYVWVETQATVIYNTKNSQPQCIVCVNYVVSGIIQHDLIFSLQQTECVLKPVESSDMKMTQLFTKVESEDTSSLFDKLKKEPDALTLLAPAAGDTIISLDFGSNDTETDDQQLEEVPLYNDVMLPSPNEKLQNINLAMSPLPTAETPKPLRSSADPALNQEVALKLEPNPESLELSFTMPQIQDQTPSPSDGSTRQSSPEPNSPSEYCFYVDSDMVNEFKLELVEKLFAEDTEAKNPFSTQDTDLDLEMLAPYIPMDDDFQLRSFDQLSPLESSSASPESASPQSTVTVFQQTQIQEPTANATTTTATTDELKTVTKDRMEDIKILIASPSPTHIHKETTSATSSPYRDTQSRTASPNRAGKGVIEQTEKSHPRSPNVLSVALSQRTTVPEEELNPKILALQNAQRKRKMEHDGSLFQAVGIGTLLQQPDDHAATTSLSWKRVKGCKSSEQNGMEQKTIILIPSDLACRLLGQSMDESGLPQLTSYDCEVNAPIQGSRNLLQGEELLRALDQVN

A word on the IC50: it is the point on the concentration scale where inhibition reaches its midpoint. `COc1ccc([C@@H](O)[C@@H](C)Oc2ccc([C@@H]3CC[C@H](c4ccc(O[C@H](C)[C@H](O)c5ccc(OC)c(OC)c5)c(OC)c4)C3)cc2OC)cc1OC` yielded an IC50 in test [1] of 3 nM.

On to `COc1ccc([C@@H](O)[C@@H](C)Oc2ccc([C@H]3O[C@H](c4ccc(OC)c(OC)c4)[C@H](C)[C@H]3C)cc2OC)cc1OC`, for which the half-inhibitory concentration (IC50) in test [2] came to 20 nM. This counts as double-digit nanomolar.

The record behind these values is ChEMBL document CHEMBL4342441, “Small molecules targeting HIF-1α pathway for cancer therapy in recent years” (Bioorg Med Chem, 2020).
